Source: patent publication US20230157290A1, “ALKENE-CONTAINING CARBOXYLATE COMPOUND AND USE THEREOF” (SHENYANG SINOCHEM AGROCHEMICALS R&D CO., LTD, priority 2019, published 2023)

Columns and labels:
Type in all cases: in vivo
Details in all cases: after emergence
piemarker = test: Herbicidal activity, post-emergence stem and leaf spray, greenhouse: piemarker control
Description: (§1) Seeds of broadleaf weeds (zinnia and piemarker) or grassy weeds (green bristlegrass and barnyard grass) were respectively sown in a paper cup having a diameter of 7 cm and containing nutrient soil; after sowing, the seeds were covered with 1 cm of soil, the soil was pressed and watered, and then the seeds were cultivated in a greenhouse according to a conventional method; and stems and leaves were sprayed after 2-3 leaf stage of the weeds.
(§2) After the original medicinal acetone was dissolved, the test requires to use 1‰ of Tween 80 to stand in running water to prepare the solution to be tested with a required concentration. According to the design dose of the test, spray treatment was carried out on a track-type crop sprayer (designed and produced by British Engineer Research Ltd.) (spray pressure is 1.95 kg/cm^2, spray volume is 500 L/hm^2 and track speed is 1.48 km/h). The test was repeated for three times. The test material was treated and then placed in an operation hall. The medicinal liquid was naturally dried in the shade, and then was placed in a greenhouse and managed according to the conventional method. The response of the weeds to the drug was observed and recorded. After treatment, the control effects of the test drug on the weeds were visually inspected regularly, expressed by 0-100%. “0” represents no control effect and “100%4” represents complete killing.
According to the above test method, part of the compounds of the formula and KC1 are selected for activity test of controlling the piemarker.

zinnia = test: Herbicidal activity, post-emergence stem and leaf spray, greenhouse: zinnia control
Description: as §1, §2
According to the above test method, part of the compounds of the formula I and KC1 are selected for activity test of controlling the zinnia.

barnyard grass = test: Herbicidal activity, post-emergence stem and leaf spray, greenhouse: barnyard grass control
Description: as §1, §2
According to the above test method, part of the compounds of the formula I and KC1 or KC2 are selected for activity test of controlling the barnyard grass.

green bristlegrass = test: Herbicidal activity, post-emergence stem and leaf spray, greenhouse: green bristlegrass control
Description: as §1, §2
According to the above test method, part of the compounds of the formula I and KC1 or KC2 are selected for activity test of controlling the green bristlegrass.

[1] = dose 600 g a.i./hm^2, visual, 0 = no control effect, 100% = complete killing

Row | SMILES | Piemarker control activity (control effect %) (piemarker; dose 37.5 g a.i./hm^2) [%] | Piemarker control activity (control effect %) (piemarker; dose 150 g a.i./hm^2) [%] | Piemarker control activity (control effect %) (piemarker; dose 600 g a.i./hm^2) [%] | Zinnia control activity (control effect %) (zinnia; dose 37.5 g a.i./hm^2) [%] | Zinnia control activity (control effect %) (zinnia; dose 150 g a.i./hm^2) [%] | Zinnia control activity (control effect %) (zinnia; [1]) [%] | Barnyard grass control activity (control effect %) (barnyard grass; dose 37.5 g a.i./hm^2) [%] | Barnyard grass control activity (control effect %) (barnyard grass; dose 150 g a.i./hm^2) [%] | Barnyard grass control activity (control effect %) (barnyard grass; dose 600 g a.i./hm^2) [%] | Green bristlegrass control activity (control effect %) (green bristlegrass; dose 37.5 g a.i./hm^2) [%] | Green bristlegrass control activity (control effect %) (green bristlegrass; dose 150 g a.i./hm^2) [%] | Green bristlegrass control activity (control effect %) (green bristlegrass; dose 600 g a.i./hm^2) [%]
1 | Cc1nn(C)c(OC(=O)/C=C/c2ccccc2)c1C(=O)c1ccc(C(F)(F)F)cc1S(C)(=O)=O [Compound 1-1] | 90 | 95 | 100 | – | – | – | – | – | – | – | – | –
2 | Cc1c(S(C)(=O)=O)ccc(C(=O)c2cnn(C)c2OC(=O)/C=C/c2ccc3c(c2)OCO3)c1Cl [Compound 1-42] | 90 | 95 | 100 | 100 | 100 | 100 | 80 | 95 | 100 | – | – | –
3 | COCCOCc1c(S(C)(=O)=O)ccc(C(=O)c2c(C)nn(C)c2OC(=O)/C=C/c2ccc(-c3ccccc3)cc2)c1Cl [Compound 1-81] | – | – | – | 90 | 95 | 100 | 80 | 90 | 95 | – | – | –
4 | COCCOCc1c(S(C)(=O)=O)ccc(C(=O)c2c(C)nn(C)c2OC(=O)/C=C/c2ccc3c(c2)OCO3)c1Cl [Compound 1-82] | – | – | – | – | – | – | 90 | 95 | 100 | – | – | –
5 | COCCOc1c(S(C)(=O)=O)ccc(C(=O)c2c(C)nn(C)c2OC(=O)/C=C/c2ccccc2)c1C [Compound 1-259] | 100 | 100 | – | – | – | – | 100 | 100 | – | 100 | 100 | –
6 | CCOc1c(S(C)(=O)=O)ccc(C(=O)c2c(C)nn(C)c2OC(=O)/C=C/c2ccccc2)c1C [Compound 1-280] | – | – | – | – | – | – | 85 | 95 | 100 | 80 | 90 | 100
7 | Cc1c(C(=O)c2cnn(C)c2OC(=O)/C=C/c2ccccc2)ccc(S(C)(=O)=O)c1C1=NOCC1 [Compound 1-292] | 90 | 90 | 95 | – | – | – | 90 | 95 | 100 | 90 | 90 | 95
8 | Cc1nn(C)c(OC(=O)C2=CCCCC2)c1C(=O)c1ccc(S(C)(=O)=O)c(OCC(F)(F)F)c1C [Compound 2-37] | – | – | – | – | – | – | 95 | 100 | 100 | – | – | –
9 | COCCOc1c(S(C)(=O)=O)ccc(C(=O)c2cnn(C)c2OC(=O)C2=CCCCC2)c1C [Compound 2-67] | – | – | – | – | – | – | 90 | 100 | 100 | – | – | –
10 | Cc1nn(C)c(OC(=O)C2=CCCCC2)c1C(=O)c1ccc(S(C)(=O)=O)c(OCC2CCCO2)c1C (stereo not shown) [Compound 2-73] | – | – | – | – | – | – | 95 | 100 | 100 | – | – | –
11 | Cc1c(C(=O)c2cnn(C)c2OC(=O)C2=CCCCC2)ccc(S(C)(=O)=O)c1C1=NOCC1 [Compound 2-121] | – | – | – | – | – | – | – | – | – | 80 | 90 | 98
12 | Cc1c(C(=O)c2cnn(C)c2OC(=O)C2=CCCC2)ccc(S(C)(=O)=O)c1C1=NOCC1 [Compound 2-123] | – | – | – | – | – | – | 100 | 100 | 100 | 90 | 100 | 100
13 | Cc1nn(C)c(OC(=O)/C=C/c2ccccc2)c1C(=O)c1ccc([N+](=O)[O-])cc1Cl [KC1, reference compound] | 20 | 70 | 100 | 0 | 0 | 0 | 0 | 0 | 0 | 10 | 10 | 10
14 | Cn1nc(C2CC2)c(C(=O)c2ccc(C(F)(F)F)cc2S(C)(=O)=O)c1OC(=O)C1=CCCCC1 [KC2, reference compound] | – | – | – | – | – | – | 60 | 90 | – | 30 | 60 | –
